# Where “and” joins values, the source holds several entries; their conditions need not be identical. Equal entries are not always repeated.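 Test compounds were applied to cells in 96-well plates for 48 hours at 5 doses. TGI: total growth inhibition.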
# Tests used:
# Assay in all cases: NCI-60 cell line screen, 48 h
# [1] = tested on: NCI-H226 lung
# [2] = tested on: SW-620 colon
# [3] = tested on: BT-549 breast
# [4] = tested on: KM12 colon
# [5] = tested on: RXF 393 renal
# [6] = tested on: K-562 leukemia
# [7] = tested on: A498 renal
# [8] = tested on: PC-3 prostate
# [9] = tested on: MOLT-4 leukemia
# [10] = tested on: SK-MEL-5 melanoma
# [11] = tested on: SR leukemia
# [12] = tested on: M14 melanoma
# [13] = tested on: UACC-62 melanoma
# [14] = tested on: EKVX NSCLC
# [15] = tested on: MALME-3M melanoma
# [16] = tested on: DU-145 prostate
# [17] = tested on: OVCAR-8 ovarian
# [18] = tested on: HT29 colon
# [19] = tested on: HL-60(TB) leukemia
# [20] = tested on: HOP-92 NSCLC
Compound,TGI [1],TGI [2],TGI [3],TGI [4] [µM],TGI [5],TGI [6],TGI [7] [µM],TGI [8] [µM],TGI [9] [µM],TGI [10],TGI [11],TGI [12] [µM],TGI [13],TGI [14],TGI [15],TGI [16] [µM],TGI [17],TGI [18] [µM],TGI [19] [µM],TGI [20] [µM]
O/C(=C\c1nc2ccccc2nc1/C=C(\O)c1ccc(Cl)cc1)c1ccccc1,> 100 µM,> 100 µM,> 100 µM,> 100,> 100 µM,> 100 µM,> 100,> 100,40.9,> 100 µM,> 100 µM,> 100,> 100 µM,> 100 µM,> 100 µM,> 100,> 100 µM,,,
Cc1ccc(C)n1-n1c(Cc2ccccc2)n[nH]c1=O,> 100 µM,> 100 µM,> 100 µM,> 100,> 100 µM,> 100 µM,> 100,> 100,> 100,> 100 µM,> 100 µM,> 100,> 100 µM,> 100 µM,> 100 µM,> 100,> 100 µM,> 100,,
Cc1nc2ccc(S(=O)(=O)Nc3ccccc3)cc2c(=O)n1NC(=O)CNc1ccccc1,> 100 µM,> 100 µM,> 100 µM,> 100,,> 100 µM,,> 100,> 100,,> 100 µM,> 100,> 100 µM,> 100 µM,> 100 µM,> 100,> 100 µM,> 100,> 100,> 100
CC(C)(C)c1cc(C(C)(C)C)c(SS(=O)(=O)O)c(O)c1O,> 100 µM,> 100 µM,> 100 µM,> 100,97.9 µM,> 100 µM,> 100,> 100,0.219,> 100 µM,,> 100,55.2 µM,> 100 µM,> 100 µM,> 100,> 100 µM,> 100,> 100,> 100
Cc1ccc(NN=NCCCCN)cc1,> 100 µM,> 100 µM,> 100 µM,> 100,> 100 µM,,> 100,,> 100,> 100 µM,> 100 µM,> 100,> 100 µM,> 100 µM,> 100 µM,> 100,> 100 µM,> 100,> 100,> 100
COC(=O)c1ccccc1C1CN=NC12Cc1ccc(C)c(C)c1C2=O (centres undefined),> 100 µM,> 100 µM,> 100 µM,> 100,> 100 µM,> 100 µM,> 100,> 100,> 100,> 100 µM,,> 100,> 100 µM,> 100 µM,> 100 µM,> 100,> 100 µM,> 100,69.7,> 100
COC1CC(OC2C(C)OC(OC3C(C)OC(OC4C(O)CC(O[C@H]5CC[C@@]6(C)C(=CC[C@]7(O)[C@@H]6C[C@@H](OC(=O)/C=C/c6ccccc6)[C@@]6(C)[C@]7(O)CC[C@@]6(O)C(C)=O)C5)OC4C)CC3OC)CC2OC)OC(C)C1O (some centres undefined),> 6.25 µM,> 6.25 µM,> 6.25 µM,> 6.25,,> 6.25 µM,,> 6.25,> 6.25,> 6.25 µM,> 6.25 µM,> 6.25,> 6.25 µM,> 6.25 µM,> 6.25 µM,> 6.25,> 6.25 µM,> 6.25,> 6.25,> 6.25
NNC(=O)c1ccccc1NC(=O)/C(=C/c1ccccc1O)NC(=O)c1ccccc1,> 100 µM,> 100 µM,> 100 µM,> 100,> 100 µM,> 100 µM,> 100,,> 100,> 100 µM,> 100 µM,> 100,> 100 µM,> 100 µM,> 100 µM,> 100,37.7 µM,> 100,> 100,> 100
O=C1C=C(Sc2ccccc2)c2nccc3c2c1nc1ccccc13,> 100 µM,29.7 µM,31.4 µM,51.6,,,,26.2,23.5,,25.5 µM,31.7,29.2 µM,41 µM,30 µM,> 100,37.6 µM,26.8,4.29,42.3
CC(OC(C)(C)C)[C@H](NC(=O)OC(C)(C)C)C(=O)O (some centres undefined),> 100 µM,> 100 µM,> 100 µM,> 100,,> 100 µM,> 100,> 100,> 100,> 100 µM,> 100 µM,> 100,> 100 µM,> 100 µM,> 100 µM,> 100,> 100 µM,> 100,> 100,> 100
c1ccc(Cc2nc(Cc3n[nH]c(Cc4ccccc4)n3)n[nH]2)cc1,,> 100 µM,> 100 µM,> 100,> 100 µM,> 100 µM,,> 100,> 100,> 100 µM,> 100 µM,> 100,> 100 µM,> 100 µM,,> 100,> 100 µM,> 100,,> 100
C=CCN1C(=O)/C(=C/c2ccc(OC)cc2)NC1=S,> 100 µM,> 100 µM,> 100 µM,> 100,> 100 µM,> 100 µM,> 100,> 100,25.6,> 100 µM,> 100 µM,> 100,> 100 µM,58.7 µM,,> 100,> 100 µM,> 100,3.81,> 100
O=C(CCc1ccccc1)ON1C(=S)NC(c2ccccc2)(c2ccccc2)C1=S,93.1 µM,> 100 µM,> 100 µM,89.7,93 µM,> 100 µM,> 100,63.8,75.5,40.6 µM,,> 100,> 100 µM,> 100 µM,71.5 µM,> 100,> 100 µM,93.6,61.2,> 100
c1ccc(N=C(Nc2ccccc2)N2CCCCC2)cc1,> 100 µM,> 100 µM,> 100 µM,> 100,,> 100 µM,,> 100,> 100,,> 100 µM,84.9,> 100 µM,> 100 µM,> 100 µM,,> 100 µM,> 100,> 100,> 100
O=C(O)CN1CCN2CCOCCOCCN(CC1)CCN(CC(=O)O)CC2,> 100 µM,> 100 µM,> 100 µM,> 100,,> 100 µM,> 100,> 100,,> 100 µM,> 100 µM,> 100,> 100 µM,> 100 µM,> 100 µM,> 100,> 100 µM,> 100,,> 100
COc1ccc(C(=O)Cn2c(C(=O)/C=C/c3ccco3)nc3ccccc32)cc1,> 100 µM,> 100 µM,> 100 µM,> 100,> 100 µM,> 100 µM,> 100,> 100,> 100,> 100 µM,> 100 µM,> 100,> 100 µM,,> 100 µM,> 100,,> 100,71.7,> 100
Cc1ccc2c(=O)c3cccc(CC(=O)O)c3[nH]c2c1C,> 100 µM,> 100 µM,> 100 µM,> 100,,> 100 µM,> 100,> 100,> 100,> 100 µM,> 100 µM,> 100,> 100 µM,> 100 µM,> 100 µM,> 100,> 100 µM,> 100,> 100,> 100
Cc1c(C)c2c(c(N)c1C#N)C(=O)N(Nc1ccccc1)C2=O,> 100 µM,> 100 µM,> 100 µM,> 100,47.1 µM,> 100 µM,,> 100,> 100,> 100 µM,> 100 µM,> 100,> 100 µM,> 100 µM,> 100 µM,> 100,> 100 µM,,> 100,> 100
O=C1SS(=O)c2ccccc21 (centres undefined),> 100 µM,> 100 µM,> 100 µM,> 100,,> 100 µM,> 100,> 100,> 100,> 100 µM,> 100 µM,> 100,> 100 µM,> 100 µM,> 100 µM,> 100,> 100 µM,> 100,> 100,> 100
CC(=O)O[C@H]1C(=O)[C@@]2(C)[C@H]([C@H](OC(=O)c3cccc(C(F)(F)F)c3)[C@]3(O)C[C@H](OC(=O)[C@H](O)[C@@H](NC(=O)c4ccccc4)c4ccccc4)C(C)=C1C3(C)C)[C@]1(OC(C)=O)CO[C@@H]1C[C@@H]2O,11.6 µM,> 16.4 µM,> 15.5 µM,24.8,0.809 µM,4.85 µM,> 13.6,,3.57,4.33 µM,3.72 µM,11.9,8 µM,> 25 µM,10.5 µM,,7.61 µM,3.84,< 0.0025,15.1
CC(C)(C)c1cc(-c2cc(C(C)(C)C)n(-c3ccccc3)n2)nn1-c1ccccc1,> 100 µM,> 100 µM,> 100 µM,> 100,> 100 µM,> 100 µM,> 100,> 100,> 100,> 100 µM,> 100 µM,> 100,> 100 µM,> 100 µM,,> 100,> 100 µM,> 100,> 100,> 100
c1cc(Sc2nc(Sc3ccncc3)nc(Sc3ccncc3)n2)ccn1,> 100 µM,> 100 µM,> 100 µM,> 100,> 100 µM,> 100 µM,> 100,> 100,> 100,> 100 µM,,> 100,> 100 µM,> 100 µM,> 100 µM,> 100,> 100 µM,> 100,> 100,> 100
CC(=O)OCC(OC(C)=O)C(OC(C)=O)C(OC(C)=O)C(C=NN(C(C)=O)S(=O)(=O)c1ccc(/C=C2\NC(=O)N(C)C2=O)cc1)OC(C)=O (centres undefined),96.5 µM and > 100 µM,83.7 µM and 97.7 µM,49.4 µM and > 100 µM,> 100,34.4 µM and 52.1 µM,> 100 µM and 57.1 µM,> 100,> 100,45.6,90.3 µM and 86.2 µM,44.1 µM and 61 µM,> 100,23.3 µM and 29.5 µM,78.5 µM and > 100 µM,37.5 µM and 52.1 µM,> 100,> 100 µM and 86.7 µM,> 100,,
O=S1CCS(=O)CCS(=O)CC1 (centres undefined),,> 100 µM,> 100 µM,> 100,,> 100 µM,,> 100,> 100,> 100 µM,> 100 µM,> 100,> 100 µM,> 100 µM,,> 100,> 100 µM,> 100,> 100,> 100
Cc1nc(Nc2ccccc2Cl)sc1C(=O)CC(=O)C(=O)Nc1c(Cl)cccc1Cl,49.7 µM,65.5 µM,86.2 µM,91.4,92.9 µM,> 100 µM,,> 100,67.9,> 100 µM,68.6 µM,> 100,> 100 µM,71.1 µM,,> 100,96.7 µM,> 100,33.6,> 100
